From patent US9238802B2, “E. coli transformant, method for producing flavin-bound glucose dehydrogenase using the same, and mutant flavin-bound glucose dehydrogenases” (KIKKOMAN CORPORATION, priority 2010, dated 2016)

What was measured:
[1] = tested on: MpGDH; experiment: Inhibitory effects of 1,10-phenanthroline on GDH activity; assay type: biochemical, Mucor prainii NISL0103
Experimental: (§1) The inhibitory effects of 1,10-phenanthroline on the activities of these flavin-bound GDHs were examined by the following method. According to the enzyme activity assay of Example 1, the enzyme activities when 1,10-phenanthroline was added at final concentrations of 1, 5, 10, 25, and 50 mM were determined to calculate the inhibitory rates relative to 0% of the inhibitory rate when no 1,10-phenanthroline was added.

[2] = tested on: McGDH; experiment: as above; assay type: biochemical, Mucor circinelloides f. circinelloides NISL0117
Experimental: as §1

[3] = tested on: flavin-bound GDHs of the invention; experiment: Inhibitory effects of 1,10-phenanthroline, summary; assay type: biochemical, Mucor
Experimental: as §1

[4] = tested on: MjGDH; experiment: Inhibitory effects of 1,10-phenanthroline on GDH activity; assay type: biochemical, Mucor javanicus NISL0111
Experimental: as §1

Q: Which results are given for `c1cnc2c(c1)ccc1cccnc12` [1,10-phenanthroline]?
A: GDH inhibition rate ([1]; 1,10-phenanthroline 1 mM): 3.72%; GDH inhibition rate ([1]; 1,10-phenanthroline 5 mM): 10.1%; GDH inhibition rate ([1]; 1,10-phenanthroline 10 mM): 23.9%; GDH inhibition rate ([1]; 1,10-phenanthroline 25 mM): 44.1%; GDH inhibition rate ([1]; 1,10-phenanthroline 50 mM): 68.6%; GDH inhibition rate ([2]; 1,10-phenanthroline 1 mM): 1.95%; GDH inhibition rate ([2]; 1,10-phenanthroline 5 mM): 8.23%; GDH inhibition rate ([2]; 1,10-phenanthroline 10 mM): 12.8%; GDH inhibition rate ([2]; 1,10-phenanthroline 25 mM): 36.2%; GDH inhibition rate ([2]; 1,10-phenanthroline 50 mM): 68.5%; inhibitory effects ([3]; 1,10-phenanthroline 1 mM): 2-4%; inhibitory effects ([3]; 1,10-phenanthroline 5 mM): about 10%; GDH inhibition rate ([4]; 1,10-phenanthroline 1 mM): 3.27%; GDH inhibition rate ([4]; 1,10-phenanthroline 5 mM): 13.1%; GDH inhibition rate ([4]; 1,10-phenanthroline 10 mM): 23.5%; GDH inhibition rate ([4]; 1,10-phenanthroline 25 mM): 64.7%; GDH inhibition rate ([4]; 1,10-phenanthroline 50 mM): 88.9%
